Laboratory results published in patent US20250230226A1, “PLXDC1/PLXDC2 ACTIVATORS AND THEIR USE IN THE TREATMENT OF BLOOD VESSEL DISORDERS” (THE REGENTS OF THE UNIVERSITY OF CALIFORNIA, priority 2019, published 2025).

System: LL/2 lung cancer tumor endothelial cells
Assay: Lung LL2 ex vivo model of tumor angiogenesis
Format: cell-based, mouse
Settings: for 48 hrs (morphology observations): LL/2 tumor endothelial cells; for Cell death: drug treatment for two days, ratio of red area to total endothelial cell area
Outline: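 Live/dead imaging with FDA and PI, taken e.g. 48 h post-drug under fixed channel settings, measures treatment effects on endothelial cells sprouting from Lewis lung tumor explants. Explants were seeded in Matrigel drops and grown ~4 days in endothelial growth medium, 37 °C, 5% CO2, before dosing.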

[1] = Mus musculus, Endothelial cell, 48 h, read-out: Cell death

In the case of `CCCCCCCCCCOc1ccc(S(=O)(=O)c2cnc3ccc([S+](C)[O-])cc3c2N2CCC(N3CCC(N4CCCN(C)CC4)CC3)CC2)cc1` (stereo not drawn) [Compound 287], the “Cell death, read at 24 hrs” value (20 μm) is reported as 40% and the “Endothelial cell morphology score at 24 hrs” value (20 μm) is reported as “* (50% or less of cells vesicularize in cell shape)”.
With `CCCCCCCCCCOc1ccc(S(=O)(=O)c2cnc3ccc([S+](C)[O-])cc3c2N2CCC(N3CCC(N4CCCC(O)C4)CC3)CC2)cc1` (stereo not drawn) [Compound 288] the “48 hrs (morphology observations)” value (10 μm) was “*** (more than 50% but less than 100% of endothelial cells vesicularize in cell shape)” and the Cell death (10 μm) was 50%.
With `CC(C)CCCC(C)CCOc1ccc(S(=O)(=O)c2cnc3ccc([S+](C)[O-])cc3c2N2CCC(N3CCC(N4CCCCC4)CC3)CC2)cc1` (stereo not drawn) [Compound 289] the Cell death (20 μm) was 20%.
In the case of `CCCCCCCCCCOc1ccc(S(=O)(=O)c2cnc3ccc([S+](C)[O-])cc3c2N2CCC(N3CCC(N4CCCCC4)CC3)CC2)cc1F` (stereo not drawn) [Compound 290], the “48 hrs (morphology observations)” value (10 μm) is reported as “*** (more than 50% but less than 100% of endothelial cells vesicularize in cell shape)” and the cytotoxicity at 10 µM [1] is reported as 50%.
With `CCCCCCCCCCOc1ccc(S(=O)(=O)c2cnc3ccc([S+](C)[O-])cc3c2N2CCC(N3CCN(CCO)CC3)CC2)cc1F` (stereo not drawn) [Compound 291] the “Cell death, read at 24 hrs” value (20 μm) was 10% and the “Endothelial cell morphology score at 24 hrs” value (20 μm) was “* (50% or less of cells vesicularize in cell shape)”.
For `CCCCCCCCCCOc1ccc(S(=O)(=O)c2cnc3ccc([S+](C)[O-])cc3c2N2CCC(N3CCC(N4CCN(CCO)CC4)CC3)CC2)cc1` (stereo not drawn) [Compound 292], the “Cell death, read at 24 hrs” value (20 μm) was 10% and the “Endothelial cell morphology score at 24 hrs” value (20 μm) was “* (50% or less of cells vesicularize in cell shape)”.
`CCN(c1c(S(=O)(=O)c2ccc(OC)cc2)cnc2cc(OC)c(OC)cc12)C(C)C` [Compound 294] was tested, and the “48 hrs (morphology observations)” value (40 μm) was “* (50% or less of cells vesicularize in cell shape)” and the Cell death (40 μm) was 50%.
In the case of `CCN(CC)CCN(CC)c1c(S(=O)(=O)c2ccc(OC)cc2)cnc2cc(OC)c(OC)cc12` [Compound 296], the “48 hrs (morphology observations)” value (40 μm) is reported as 0 and the Cell death (40 μm) is reported as 20%.
In the case of `CCN(CC)CCC(C)Nc1c(S(=O)(=O)c2ccc(OC)cc2)cnc2cc(OC)c(OC)cc12` (stereo not drawn) [Compound 300], the “48 hrs (morphology observations)” value (40 μm) is reported as 0 and the Cell death (40 μm) is reported as 20%.
With `CCN(CC)CCCN1CCN(c2c(S(=O)(=O)c3ccc(OC)cc3)cnc3cc(OC)c(OC)cc23)CC1` [Compound 302] the “48 hrs (morphology observations)” value (40 μm) was 0 and the Cell death (40 μm) was 70%.
For `COc1ccc(S(=O)(=O)c2cnc3cc(OC)c(OC)cc3c2N2C[C@@H]3C[C@H]2CN3C)cc1` [Compound 306], the “48 hrs (morphology observations)” value (40 μm) was 0 and the cytotoxicity at 40 µM [1] was 40%.
With `COc1ccc(S(=O)(=O)c2cnc3cc(OC)c(OC)cc3c2N2CCC(O)(c3ccccc3)CC2)cc1` [Compound 308] the “48 hrs (morphology observations)” value (40 μm) was 0 and the Cell death (40 μm) was 20%.
`CNC(=O)c1ccc(C2CCN(c3c(S(=O)(=O)c4ccc(OC)cc4)cnc4cc(OC)c(OC)cc34)CC2)cc1` [Compound 310] was tested, and the “48 hrs (morphology observations)” value (40 μm) was 0 and the Cell death (40 μm) was 10%.
`COc1ccc(C2CCN(c3c(S(=O)(=O)c4ccc(OC)cc4)cnc4cc(OC)c(OC)cc34)CC2)cc1` [Compound 311] was tested, and the “48 hrs (morphology observations)” value (40 μm) was 0 and the Cell death (40 μm) was 30%.
`COc1ccc(S(=O)(=O)c2cnc3cc(OC)c(OC)cc3c2N2CCC(c3ccc(CN4CCCC4)cc3)CC2)cc1` [Compound 312] was tested, and the “48 hrs (morphology observations)” value (40 μm) was “**** (100% of endothelial cells vesicularize in cell shape and look flattened in morphology (indicating disintegration of the cell body))” and the Cell death (40 μm) was 100%.
For `CCOC(=O)c1ccc(N2CCN(c3c(S(=O)(=O)c4ccc(OC)cc4)cnc4cc(OC)c(OC)cc34)CC2)cc1` [Compound 317], the “48 hrs (morphology observations)” value (40 μm) was 0 and the Cell death (40 μm) was 30%.
In the case of `COc1ccc(N2CCN(c3c(S(=O)(=O)c4ccc(OC)cc4)cnc4cc(OC)c(OC)cc34)CC2=O)cc1` [Compound 318], the “48 hrs (morphology observations)” value (40 μm) is reported as 0 and the Cell death (40 μm) is reported as 30%.
With `COc1ccc(S(=O)(=O)c2cnc3cc(OC)c(OC)cc3c2N2CCC(N3CCCCC3)CC2)cc1` [Compound 320] the “48 hrs (morphology observations)” value (40 μm) was 0 and the Cell death (40 μm) was 30%.
In the case of `COc1ccc(S(=O)(=O)c2cnc3cc(OC)c(OC)cc3c2N2CCC(N3CCCC3=O)CC2)cc1` [Compound 321], the “48 hrs (morphology observations)” value (40 μm) is reported as 0 and the Cell death (40 μm) is reported as 40%.
For `COc1ccc(S(=O)(=O)c2cnc3cc(OC)c(OC)cc3c2N2CCC(N3CCCC3CO)CC2)cc1` (stereo not drawn) [Compound 322], the “48 hrs (morphology observations)” value (40 μm) was 0 and the Cell death (40 μm) was 30%.
With `COc1ccc(S(=O)(=O)c2cnc3cc(OC)c(OC)cc3c2N2CCCN(CCO)CC2)cc1` [Compound 323] the “48 hrs (morphology observations)” value (40 μm) was 0 and the Cell death (40 μm) was 30%.
With `COc1ccc(S(=O)(=O)c2cnc3cc(OC)c(OC)cc3c2N2CCC3C(COCCN3CC(C)C)C2)cc1` (stereo not drawn) [Compound 324] the “48 hrs (morphology observations)” value (40 μm) was 0 and the Cell death (40 μm) was 60%.
With `COc1ccc(S(=O)(=O)c2cnc3cc(OC)c(OC)cc3c2N2CCCN(CC3(O)CCCC3)CC2)cc1` [Compound 325] the “48 hrs (morphology observations)” value (40 μm) was “* (50% or less of cells vesicularize in cell shape)” and the Cell death (40 μm) was 30%.
In the case of `COc1ccc(S(=O)(=O)c2cnc3cc(OC)c(OC)cc3c2N2CCCN(C3COC3)CC2)cc1` [Compound 326], the “48 hrs (morphology observations)” value (40 μm) is reported as 0 and the Cell death (40 μm) is reported as 30%.
In the case of `COc1ccc(S(=O)(=O)c2cnc3cc(OC)c(OC)cc3c2N2CCCN(c3nc4ccc(Cl)cc4s3)CC2)cc1` [Compound 327], the “48 hrs (morphology observations)” value (40 μm) is reported as 0 and the cytotoxicity at 40 µM [1] is reported as 20%.
`COc1ccc(S(=O)(=O)c2cnc3cc(OC)c(OC)cc3c2N2CCC(=O)N(C)CC2)cc1` [Compound 328] was tested, and the “48 hrs (morphology observations)” value (40 μm) was 0 and the Cell death (40 μm) was 30%.
`COc1ccc(S(=O)(=O)c2cnc3cc(OC)c(OC)cc3c2N2CCCN(C3CCSCC3)CC2)cc1` [Compound 329] was tested, and the “48 hrs (morphology observations)” value (40 μm) was “*** (more than 50% but less than 100% of endothelial cells vesicularize in cell shape)” and the Cell death (40 μm) was 40%.
In the case of `COc1ccc(S(=O)(=O)c2cnc3cc(OC)c(OC)cc3c2N2CCCN(C3CCS(=O)(=O)CC3)CC2)cc1` [Compound 330], the “48 hrs (morphology observations)” value (40 μm) is reported as “*** (more than 50% but less than 100% of endothelial cells vesicularize in cell shape)” and the Cell death (40 μm) is reported as 50%.
In the case of `COc1ccc(S(=O)(=O)c2cnc3ccc(C(=O)N(C)C)cc3c2N2CCC(N3CCCCC3)CC2)cc1` [Compound 331], the “48 hrs (morphology observations)” value (40 μm) is reported as 0 and the Cell death (40 μm) is reported as 10%.
For `COc1ccc(S(=O)(=O)c2cnc3ccc(C(=O)N(C)C)cc3c2N2CCC(N3CCCC3=O)CC2)cc1` [Compound 332], the “48 hrs (morphology observations)” value (40 μm) was 0 and the Cell death (40 μm) was 0%.
In the case of `COc1ccc(S(=O)(=O)c2cnc3ccc(C(=O)N(C)C)cc3c2N2CCCN(CC(=O)N(C)C)CC2)cc1` [Compound 333], the “48 hrs (morphology observations)” value (40 μm) is reported as 0 and the Cell death (40 μm) is reported as 0%.
In the case of `CNC(=O)c1ccc2ncc(S(=O)(=O)c3ccc(OC)cc3)c(N3CCC(N4CCCC4CO)CC3)c2c1` (stereo not drawn) [Compound 336], the “48 hrs (morphology observations)” value (40 μm) is reported as 0 and the Cell death (40 μm) is reported as 0%.
Compound `CCCCCCCCCCCCCCOc1ccc(S(=O)(=O)c2cnc3ccc([S+](C)[O-])cc3c2N2CCC(N3CCN(CCO)CC3)CC2)cc1` (stereo not drawn) [Compound 339] has a cytotoxicity at 20 µM [1] of 50%.
In the case of `CCCCCCCCCCCCOc1ccc(S(=O)(=O)c2cnc3ccc([S+](C)[O-])cc3c2N2CCC(N3CCC(N4CCN(CCO)CC4)CC3)CC2)cc1` (stereo not drawn) [Compound 340], the “48 hrs (morphology observations)” value (20 μm) is reported as “*** (more than 50% but less than 100% of endothelial cells vesicularize in cell shape)” and the Cell death (20 μm) is reported as 60%.
